Reference: patent publication US11814648B2, “Functional oligodendrocytes derived from pluripotent stem cells and methods of making and using the same” (New York Stem Cell Foundation, Inc., priority 2014, dated 2023)

Key:
[1] = system: OLIG2-GFP knock-in hESC reporter line; assay: Flow cytometric quantification of OLIG2-GFP expression under RA/SHH/SAG conditions; format: cell-based, human
Method: FIGS. 2A-2D show the requirement for RA and SHH to derive OLIG2^+ progenitor cells. […] RA at a concentration of 100 nM from day 0 results in the highest yield of GFP^+ cells. […] Negative: hESC line RUES1. […] Error bars are SEM (N=3). […] Only GFP^+ cells form spheres, providing enrichment to the GFP^+ population.
We used an OLIG2-GFP knock-in hESC reporter line (Liu et al., 2011) to track OLIG2^+ progenitors by live fluorescent imaging. First, we induced PAX6^+ cells using dual inhibition of SMAD signaling in adherent cultures. Chambers, S. M. et al., Nat Biotechnol. 27:275-80 (2009). Next, to mimic the embryonic spinal cord environment, we applied different concentrations of RA and/or SHH at various times and quantified OLIG2-GFP expression through flow cytometry (FIG. 2A).
At day 12, cells were detached and placed into low-attachment plates to promote their aggregation into spheres. The minimum number of cells required to form a sphere was at least 100 cells, and we noted that the majority of cells in the spheres were GFP^+. To investigate this further, we sorted day 12 cultures for GFP, and observed that only the GFP^+ cells formed aggregates (FIG. 2C).
At the day of differentiation induction (day 0), medium was switched to Neural Induction Medium, which is mTeSR Custom Medium (Stemcell Technologies) containing the small molecules SB431542 10 μM (Stemgent) and LDN193189 250 nM (Stemgent), as well as 100 nM all-trans-RA (Sigma-Aldrich; St. Louis, Mo.). mTeSR Custom Medium has the same composition as the commercially available mTeSR-1 medium but without five factors that sustain pluripotency, namely lithium chloride, GABA, pipecolic acid, bFGF, and TGFβ1 (Stemcell Technologies). […]
(§1) Cells were enzymatically harvested by ACCUTASE® treatment for 25 min at 37° C. to obtain a single cell suspension. Cells were then re-suspended in 100 μl of their respective medium containing the appropriate amount of either primary antibody or fluorescence-conjugated antibodies and were incubated on ice for 30 minutes shielded from light. […] Flow cytometry data were analyzed using BD FACSDiva™ software.

O4^+ cells = assay: FACS-analysis for O4+ cells at day 75 of differentiation; format: cell-based, human; details: RA only vs RA and SAG in the first 12 days
Method: FIGS. 3A-3C show SHH and dual SMAD inhibition requirements for OLIG2^+ progenitors. […] Endogenous SHH levels are higher in the samples that were not exposed to SHH/SAG. Error bars are SEM (N=3). […] Negative Control: APC-conjugated secondary antibody only.
Spheres were plated on pO/L plates, as described above, in PDGF Medium at day 30, changing ⅔ of the PDGF Medium every other day until day 75 of differentiation. The appearance of O4^+ cells was assessed by live O4 staining from day 55 onwards (FIG. 6). At day 75, O4^+ OPCs could be isolated by FACS (FIG. 7I). Alternatively, for terminal oligodendrocyte differentiation (FIG. 7G-7H), cells were cultured in Glial Medium from day 75, changing ⅔ of the medium every 3 days for two weeks.
as §1, with “light. When secondary antibodies were used, primary antibodies were washed with PBS and secondary antibodies were applied for 30 minutes on ice.” for “light.”

Compound	OLIG2^+ progenitors generated ([1]; 100 nM RA from the beginning of induction, no exogenous SHH, OLIG2-GFP flow cytometry, day 14)	Yield of GFP^+ cells under different RA and SHH conditions ([1]; RA 100 nM from day 0, day 14 of differentiation)	OLIG2^+ progenitors yield ([1]; SAG replacing recombinant human SHH from day 8, with 100 nM RA from day 0)	Decrease in the O4^+ population in cells not provided with SAG (O4^+ cells)
CC1=C(/C=C/C(C)=C/C=C/C(C)=C/C(=O)O)C(C)(C)CCC1 [RA, all trans retinoic acid]	40.6%	highest yield	–	–
CN[C@H]1CC[C@H](N(Cc2cccc(-c3ccncc3)c2)C(=O)c2sc3ccccc3c2Cl)CC1 [SAG, 3-chloro-N-[(1r,4r)-4-(methylamino)cyclohexyl]-N-[3-(pyridin-4-yl)benzyl]benzo[b]thiophene-2-carboxamide]	–	–	70.1%	56%
